# Results reported in US20240158754A1, “REDUCING HIGH MANNOSE GLYCAN PROTEIN EXPRESSION USING GUANOSINE 5'-MONOPHOSPHATE” (MERCK SHARP & DOHME LLC, priority 2021, published 2024).
# “Also recorded” adds a separate entry of the source.
# Columns and labels:
# Assay type in all cases: cell-based, Chinese hamster
# [1] = tested on: recombinant CHO cell lines expressing monoclonal antibodies (mAb A, mAb B, or mAb C); assay: 10-day fed-batch assay with GMP (Example 2), statements for all cell lines
# Procedure: (§1) Cells were cultured in Merck proprietary chemically defined media in increasing volume to obtain sufficient number of cells for inoculation. For cell lines expressing mAb A and mAb B, cells were seeded at 0.5×10^6 cells per mL into Merck proprietary chemically defined production medium in two 1 L Erlenmeyer flasks at a final volume of 250 mL in each flask. For cell line expressing mAb C, cells were seeded at 1.0×10^6 cells per mL into production medium in two 1 L Erlenmeyer flasks at a final volume of 250 mL in each flask. Cells were incubated at 36.5° C., with agitation at 100 rpm, in presence of 5% CO2, and humidity ≥70%. Merck proprietary chemically defined nutrient feed media were added to all the cultures on day 3, day 6, and day 8. On Day 6, cells from both 1 L flasks for each cell line were pooled and then aliquoted in 125 mL Erlenmeyer flasks with 30 mL working volume, respectively. A 200 mM stock solution of GMP was prepared by adding Guanosine 5′-monophosphate disodium salt hydrate (Sigma Aldrich, St. Louis, MO) in purified water. After the cells were aliquoted in separate 125 mL test flasks on day 6, GMP was added to the cultures at final concentration of 1 mM or 10 mM. No change in pH and osmolality was observed as a result of the GMP addition. A control condition with no added GMP was also created for each cell line. All conditions were run with two replicates. All cultures were harvested on day 10.
# (§2) Cell culture parameters were analyzed on day 0, 3, 6, 8 and 10, and the corresponding spent medium supernatants were evaluated for antibody titer, charge variants, and glycan analysis on day 10 to assess the effect of GMP on cell growth, viability, titer, and glycan profile of the recombinant antibodies. Cell density and viability were measured using the trypan blue exclusion method with Cedex Bio Analyzer (Roche Diagnostics GmbH, Mannheim, Germany). Culture pH was measured using ABL80 Blood/Gas Analyzer (Radiometer, Denmark). Cell culture metabolites were measured using RX Imola (Randox Laboratories Ltd. Crumlin, UK) and osmolality was measured using a micro-Osmometer 2020 (Advanced Instruments, Norwood, MA).
# (§3) Antibody titer was analyzed using a mAb-specific reverse-phase high-performance liquid chromatography (HPLC) or analytical Protein A HPLC method. Multiple product quality attributes were analyzed on harvested cell-culture fluid (HCCF) after a Protein A chromatography step. Analysis of HMW species was performed by size-exclusion chromatography, analysis of charge variants was performed by ion exchange chromatography, and analysis of N-glycan was performed by ultra-performance liquid chromatography (UPLC) with 2-aminobenzamide (2-AB) labeling.
# [2] = tested on: recombinant CHO cell line expressing mAb B; assay: 10-day fed-batch assay of eighteen components (Example 1)
# Procedure: (§4) Experiment was executed by dividing into 6-blocks. In each experiment block, 3 unique test components were assessed and control conditions with no added test component were included for all three cell lines. Cells were cultured in Merck proprietary chemically defined media in increasing volume to obtain sufficient number of cells for inoculation. […] Merck proprietary chemically defined nutrient feed media were added to all the cultures on day 3, day 6, and day 8. On Day 6, cells from both 1 L flasks for each cell line were pooled and then aliquoted in 125 mL Erlenmeyer flasks with 30 mL working volume, respectively. Stock solutions for each of the tested component were prepared as defined in Table 1 below, and all components were ordered from Sigma Aldrich (St. Louis, MO). Component 6 is GMP. All solutions were prepared in purified water. For each cell line, components were added to the cultures at final concentration at a lower and higher concentrations as per Table 1, respectively, on day 6 of the fed-batch culture. […] A control condition with no added test component was also created for each cell line. All conditions were run with two replicates. All cultures were harvested on day 10.
# (§5) Cell culture parameters were analyzed on day 0, 3, 6, 8 and 10, and the corresponding spent medium supernatants were evaluated for antibody titer, charge variants and glycan analysis on day 10 to assess the effect of added components on cell growth, viability, titer, aggregation, charge variants and glycan profile of the recombinant antibodies. Cell density and viability were measured using the trypan blue exclusion method with Cedex Bio Analyzer (Roche Diagnostics GmbH, Mannheim, Germany). Culture pH was measured using ABL80 Blood/Gas Analyzer (Radiometer, Denmark).
# as §3
# (§6) Data generated from all 6 blocks for all tested components (excluding component 9 and 12) were transformed using a dimensionless number, which is termed as Concentration Impact Factor, and abbreviated as Cf. Cf provides a score value for impact of change in component's concentration on desired response when tested at different concentrations. The equation used to transform data to calculate Cf is described below as equation 1. The first part of the equation represents a directional vector, which determines whether increasing the component concentration from a lower value to a higher value results in a positive or negative response for the measure attribute. The second part of the equation then calculates the magnitude of that change as the concentration changes from low to high.
# (§7) wherein, • Cf. Concentration impact factor (dimensionless number) • H: Response for a measured attribute when component is added at a higher concentration • L: Response for a measured attribute when component is added at a lower concentration • C: Response for a measured attribute […] • hc: high concentration (mM) of the component added • lc: low concentration (mM) of the component added
# [3] = tested on: recombinant CHO cell line expressing mAb C; assay: as above; settings: mAb C cell line (Table 4, untitled)
# Procedure: as §4, §5, §3, §6, §7
# [4] = tested on: recombinant CHO cell line expressing mAb A; assay: as above; settings: for Relative IVCC (% to Control): added day 6, harvest day 10; for Relative IVCC (% to Control) / Relative Titer (% to Control) / Relative Viability (% to Control): mAb A cell line
# Procedure: as §4, §5, §3, §6, §7
# [5] = tested on: recombinant CHO cell line expressing mAb B; assay: 10-day fed-batch assay with GMP (Example 2)
# Procedure: as §1, §2, §3
# [6] = tested on: recombinant CHO cell line expressing mAb C; assay: 10-day fed-batch assay with GMP (Example 2)
# Procedure: as §1, §2, §3
# [7] = tested on: recombinant CHO cell line expressing mAb A; assay: 10-day fed-batch assay with GMP (Example 2)
# Procedure: as §1, §2, §3
# [8] = tested on: recombinant CHO cell lines expressing monoclonal antibodies (mAb A, mAb B, or mAb C); assay: 10-day fed-batch assay of eighteen components (Example 1), statements for all cell lines; settings: among the 18 tested components
# Procedure: Experiment was executed by dividing into 6-blocks. In each experiment block, 3 unique test components were assessed and control conditions with no added test component were included for all three cell lines. Cells were cultured in Merck proprietary chemically defined media in increasing volume to obtain sufficient number of cells for inoculation. For cell lines expressing mAb A and mAb B, cells were seeded at 0.5×10^6 cells per mL into Merck proprietary chemically defined production medium in two 1 L Erlenmeyer flasks at a final volume of 250 mL in each flask. […]
# as §2, with “titer, charge variants and glycan” for “titer, charge variants, and glycan”, “effect of added components on cell” for “effect of GMP on cell”, “viability, titer, aggregation, charge variants and glycan” for “viability, titer, and glycan”, “Norwood, MA). […]” for “Norwood, MA).”
# [9] = Higher Concentration per Table 1
# [10] = Lower Concentration per Table 1
structure (smiles),measurement,setting,value
"Nc1nc2c(ncn2[C@@H]2O[C@H](COP(=O)(O)O)[C@@H](O)[C@H]2O)c(=O)[nH]1 [Component 6, Guanosine 5′-monophosphate]",higher order mannose structures,[1],slight decrease
same,impact on cell culture parameters,[1]; GMP 1 mM,no impact
same,HMG content on the recombinant antibodies,[1]; GMP 1 mM and 10 mM,dose dependent decrease
same,high mannose,"[1]; GMP 10 mM, all cell lines",large decreases
same,Man 5 content,"[1]; mAb A, mAb B, and mAb C, listed as GMP",major high mannose species downregulated; also recorded: dose dependent decrease
same,"cell culture performance parameters (IVCC, final viability, titer, ammonia, lactate)",[1]; three CHO cell lines,did not significantly affect
same,Relative IVCC (% to Control),[2]; [9],90.77 % to Control
same,Relative Titer (% to Control),[2]; [9],94.86 % to Control
same,Relative Viability (% to Control),[2]; [9],95.28 % to Control
same,Relative IVCC (% to Control),[2]; [10],96.14 % to Control
same,Relative Titer (% to Control),[2]; [10],100.81 % to Control
same,Relative Viability (% to Control),[2]; [10],100.77 % to Control
same,Relative IVCC (% to Control),[3]; [9],79.88 % to Control
same,Relative Titer (% to Control),[3]; [9],103.8 % to Control
same,Relative Viability (% to Control),[3]; [9],87.81 % to Control
same,Relative IVCC (% to Control),[3]; [10],97.24 % to Control
same,Relative Titer (% to Control),[3]; [10],102.19 % to Control
same,Relative Viability (% to Control),[3]; [10],99.25 % to Control
same,Relative IVCC (% to Control),[4]; Higher Concentration per Table 1 (GMP 10 mM),95.08 % to Control
same,Relative Titer (% to Control),[4]; [9],96.14 % to Control
same,Relative Viability (% to Control),[4]; [9],91.8 % to Control
same,Relative IVCC (% to Control),[4]; Lower Concentration per Table 1 (GMP 1 mM),100.61 % to Control
same,Relative Titer (% to Control),[4]; [10],101.88 % to Control
same,Relative Viability (% to Control),[4]; [10],96.75 % to Control
same,dose dependent change in Man 5 peak (Cf),"[4]; mAb A, lower vs higher concentration",largest dose dependent decrease in Man 5 peak
same,Cumulative Titer,[5]; GMP 1 mM,314 mg/L
same,Final viability,[5]; GMP 1 mM,86.9%
same,IVCC,[5]; GMP 1 mM,52.7 10^6 cells · Day/mL
same,Cumulative Titer,[5]; GMP 10 mM,296 mg/L
same,Final viability,[5]; GMP 10 mM,82.1%
same,IVCC,[5]; GMP 10 mM,49.7 10^6 cells · Day/mL
same,cell growth,[5]; GMP 10 mM,slight decrease
same,"Man 5 (HMG level, value relative to control)",[5]; GMP final concentration 1 mM,1.02
same,Total HMG (value relative to control),[5]; GMP final concentration 1 mM,1.01
same,"Man 5 (HMG level, value relative to control)",[5]; GMP final concentration 10 mM,0.91
same,Total HMG (value relative to control),[5]; GMP final concentration 10 mM,0.90
same,Cumulative Titer,[6]; GMP 1 mM,690 mg/L
same,Final viability,[6]; GMP 1 mM,98.5%
same,IVCC,[6]; GMP 1 mM,86.5 10^6 cells · Day/mL
same,high mannose glycans,[6]; GMP 1 mM,slight decrease
same,Cumulative Titer,[6]; GMP 10 mM,701 mg/L
same,Final viability,[6]; GMP 10 mM,86.3%
same,IVCC,[6]; GMP 10 mM,71.1 10^6 cells · Day/mL
same,cell growth,[6]; GMP 10 mM,considerable decrease
same,"Man 5 (HMG level, value relative to control)",[6]; GMP final concentration 1 mM,0.98
same,"Man 5 (HMG level, value relative to control)",[6]; GMP final concentration 10 mM,0.68
same,Cumulative Titer,[7]; GMP 1 mM,158 mg/L
same,Final viability,[7]; GMP 1 mM,85.5%
same,IVCC,[7]; GMP 1 mM,46.4 10^6 cells · Day/mL
same,high mannose glycans,[7]; GMP 1 mM,slight decrease
same,Cumulative Titer,[7]; GMP 10 mM,167 mg/L
same,Final viability,[7]; GMP 10 mM,77.4%
same,IVCC,[7]; GMP 10 mM,44.3 10^6 cells · Day/mL
same,cell growth,[7]; GMP 10 mM,slight decrease
same,"Man 5 (HMG level, value relative to control)",[7]; GMP final concentration 1 mM,0.97
same,Total HMG (value relative to control),[7]; GMP final concentration 1 mM,0.96
same,"Man 5 (HMG level, value relative to control)",[7]; GMP final concentration 10 mM,0.76
same,Total HMG (value relative to control),[7]; GMP final concentration 10 mM,0.76
same,"overall HMG content, in particular Man 5 species, of the monoclonal antibodies produced",[8],reduced
